Source: paper PMC12136031 (Science Advances, 2025)
Where two headings read alike, the source gives them in different places.

Columns and labels:
[1] = molecular target: T1, HRH1 (Homo sapiens, UniProt P35367); experiment: Safety47 Calcium Flux HRH1; type: cell-based; conditions: for Emax: read-out: Max Response; for EC50: read-out: RC50 (EC50); for IC50: read-out: RC50 (IC50)
T1 construct: purchased Eurofins Panlab Safety47 Safety Scan

[2] = molecular target: T2, OPRK1 (Homo sapiens, UniProt P41145); experiment: Safety47 cAMP OPRK1; type: cell-based; conditions: for Emax: read-out: Max Response; for EC50: read-out: RC50 (EC50); for IC50: read-out: RC50 (IC50)
T2 construct: purchased Eurofins Panlab (Safety47 Safety Scan, contract panel)

[3] = molecular target: T3, nAChR(a4/b2) (Homo sapiens, UniProt P17787+P43681); experiment: Safety47 Ion Channel nAChR(a4/b2); type: cell-based; conditions: for Emax: read-out: Max Response; for IC50: read-out: RC50 (IC50); for EC50: read-out: RC50 (EC50)
T3 construct: purchased Eurofins Panlab (Safety47 Safety Scan, contract panel)

[4] = molecular target: T4, HTR2A (Homo sapiens, UniProt P28223); experiment: Safety47 Calcium Flux HTR2A; type: cell-based; conditions: for Emax: read-out: Max Response; for EC50: read-out: RC50 (EC50); for IC50: read-out: RC50 (IC50)
T4 construct: purchased Eurofins Panlab Safety47 Safety Scan

[5] = molecular target: T5, OPRD1 (Homo sapiens, UniProt P41143); experiment: Safety47 cAMP OPRD1; type: cell-based; conditions: for Emax: read-out: Max Response; for EC50: read-out: RC50 (EC50); for IC50: read-out: RC50 (IC50)
T5 construct: purchased Eurofins Panlab (Safety47 Safety Scan, contract panel)

[6] = molecular target: T6, INSR (Homo sapiens, UniProt P06213); experiment: Safety47 Kinase Binding INSR; conditions: Kinases, Inhibitor; for Emax: read-out: Max Response; for IC50: read-out: RC50 (IC50)
T6 construct: purchased Eurofins Panlab (Safety47 Safety Scan, contract panel)

[7] = molecular target: T7, AR (Homo sapiens, UniProt P10275); experiment: Safety47 NHR Nuclear Translocation AR; type: cell-based; conditions: for Emax: read-out: Max Response; for EC50: read-out: RC50 (EC50); for IC50: read-out: RC50 (IC50)
T7 construct: purchased Eurofins Panlab (Safety47 Safety Scan, contract panel)
T7 sequence (P10275 1-920): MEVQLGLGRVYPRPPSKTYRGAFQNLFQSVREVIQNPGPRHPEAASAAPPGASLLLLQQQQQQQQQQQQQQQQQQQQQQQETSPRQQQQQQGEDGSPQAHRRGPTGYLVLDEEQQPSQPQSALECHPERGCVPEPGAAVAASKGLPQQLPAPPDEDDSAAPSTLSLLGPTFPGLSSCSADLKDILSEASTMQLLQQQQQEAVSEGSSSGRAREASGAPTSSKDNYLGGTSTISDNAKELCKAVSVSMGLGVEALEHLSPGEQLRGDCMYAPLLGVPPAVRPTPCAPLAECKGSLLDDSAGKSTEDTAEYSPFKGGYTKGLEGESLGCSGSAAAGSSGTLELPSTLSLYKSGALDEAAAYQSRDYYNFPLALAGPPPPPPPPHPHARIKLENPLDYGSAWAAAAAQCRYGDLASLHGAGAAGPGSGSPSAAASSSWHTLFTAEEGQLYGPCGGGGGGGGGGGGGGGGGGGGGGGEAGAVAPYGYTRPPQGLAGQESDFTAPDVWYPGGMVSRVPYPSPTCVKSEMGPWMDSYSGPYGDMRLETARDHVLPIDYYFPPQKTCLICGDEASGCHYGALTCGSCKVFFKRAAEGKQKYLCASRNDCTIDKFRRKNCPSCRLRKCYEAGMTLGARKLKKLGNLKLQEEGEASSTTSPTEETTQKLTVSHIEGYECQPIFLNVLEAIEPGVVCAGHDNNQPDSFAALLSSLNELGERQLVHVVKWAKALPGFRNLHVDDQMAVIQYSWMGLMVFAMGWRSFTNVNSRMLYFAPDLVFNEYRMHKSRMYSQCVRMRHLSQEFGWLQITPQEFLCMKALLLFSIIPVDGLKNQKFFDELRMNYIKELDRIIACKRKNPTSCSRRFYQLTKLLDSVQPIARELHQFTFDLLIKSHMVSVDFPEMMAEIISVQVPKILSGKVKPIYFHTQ

[8] = molecular target: T8, COX1 (Homo sapiens, UniProt P23219); experiment: Safety47 Enzymatic COX1; type: biochemical; conditions: Inhibitor; for Emax: read-out: Max Response; for IC50: read-out: RC50 (IC50)
T8 construct: purchased Eurofins Panlab (Safety47 Safety Scan, contract panel)

[9] = system: TFEB; experiment: TFEB protein level / nuclear localization in BEAS-2B cells; type: cell-based, human; conditions: in the presence of DCAF7 (WT vs DCAF7 KO BEAS-2B), 18 hours
[10] = molecular target: T9, PDE3A (Homo sapiens, UniProt Q14432); experiment: Safety47 Enzymatic PDE3A; type: biochemical; conditions: Inhibitor; for Emax: read-out: Max Response; for IC50: read-out: RC50 (IC50)
T9 construct: purchased Eurofins Panlab (Safety47 Safety Scan, contract panel)

[11] = molecular target: T10, PDE4D2 (Homo sapiens, UniProt Q08499); experiment: Safety47 Enzymatic PDE4D2; type: biochemical; conditions: Inhibitor; for Emax: read-out: Max Response; for IC50: read-out: RC50 (IC50)
T10 construct: purchased Eurofins Panlab (Safety47 Safety Scan, contract panel)

[12] = molecular target: T11, NET (Homo sapiens, UniProt P23975); experiment: Safety47 Transporter NET; type: cell-based; conditions: Blocker; for Emax: read-out: Max Response; for IC50: read-out: RC50 (IC50)
T11 construct: purchased Eurofins Panlab Safety47 Safety Scan

[13] = molecular target: T12, DRD2S (Homo sapiens, UniProt P14416); experiment: Safety47 cAMP DRD2S; type: cell-based; conditions: for Emax: read-out: Max Response; for EC50: read-out: RC50 (EC50); for IC50: read-out: RC50 (IC50)
T12 construct: purchased Eurofins Panlab Safety47 Safety Scan

[14] = molecular target: T13, SERT (Homo sapiens, UniProt P31645); experiment: Safety47 Transporter SERT; type: cell-based; conditions: Blocker; for Emax: read-out: Max Response; for IC50: read-out: RC50 (IC50)
T13 construct: purchased Eurofins Panlab Safety47 Safety Scan

[15] = molecular target: T14, CNR2 (Homo sapiens, UniProt P34972); experiment: Safety47 cAMP CNR2; type: cell-based; conditions: for Emax: read-out: Max Response; for EC50: read-out: RC50 (EC50); for IC50: read-out: RC50 (IC50)
T14 construct: purchased Eurofins Panlab Safety47 Safety Scan

[16] = molecular target: T15, ADRA2A (Homo sapiens, UniProt P08913); experiment: Safety47 cAMP ADRA2A; type: cell-based; conditions: for Emax: read-out: Max Response; for EC50: read-out: RC50 (EC50); for IC50: read-out: RC50 (IC50)
T15 construct: purchased Eurofins Panlab Safety47 Safety Scan
T15 sequence (P08913 1-465): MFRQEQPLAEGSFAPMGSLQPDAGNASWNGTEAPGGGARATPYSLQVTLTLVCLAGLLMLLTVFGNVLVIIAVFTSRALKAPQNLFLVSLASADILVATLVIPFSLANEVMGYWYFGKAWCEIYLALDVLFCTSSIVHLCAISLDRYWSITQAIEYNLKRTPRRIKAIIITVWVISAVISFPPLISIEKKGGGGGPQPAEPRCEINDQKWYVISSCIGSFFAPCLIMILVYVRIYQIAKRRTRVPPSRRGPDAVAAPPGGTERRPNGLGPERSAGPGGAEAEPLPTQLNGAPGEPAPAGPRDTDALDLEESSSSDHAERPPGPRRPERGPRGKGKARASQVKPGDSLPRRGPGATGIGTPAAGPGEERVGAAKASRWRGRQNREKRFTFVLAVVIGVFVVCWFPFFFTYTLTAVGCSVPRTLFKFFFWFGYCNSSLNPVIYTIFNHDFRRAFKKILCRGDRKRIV

T6 sequence (P06213 28-1382, species assumed): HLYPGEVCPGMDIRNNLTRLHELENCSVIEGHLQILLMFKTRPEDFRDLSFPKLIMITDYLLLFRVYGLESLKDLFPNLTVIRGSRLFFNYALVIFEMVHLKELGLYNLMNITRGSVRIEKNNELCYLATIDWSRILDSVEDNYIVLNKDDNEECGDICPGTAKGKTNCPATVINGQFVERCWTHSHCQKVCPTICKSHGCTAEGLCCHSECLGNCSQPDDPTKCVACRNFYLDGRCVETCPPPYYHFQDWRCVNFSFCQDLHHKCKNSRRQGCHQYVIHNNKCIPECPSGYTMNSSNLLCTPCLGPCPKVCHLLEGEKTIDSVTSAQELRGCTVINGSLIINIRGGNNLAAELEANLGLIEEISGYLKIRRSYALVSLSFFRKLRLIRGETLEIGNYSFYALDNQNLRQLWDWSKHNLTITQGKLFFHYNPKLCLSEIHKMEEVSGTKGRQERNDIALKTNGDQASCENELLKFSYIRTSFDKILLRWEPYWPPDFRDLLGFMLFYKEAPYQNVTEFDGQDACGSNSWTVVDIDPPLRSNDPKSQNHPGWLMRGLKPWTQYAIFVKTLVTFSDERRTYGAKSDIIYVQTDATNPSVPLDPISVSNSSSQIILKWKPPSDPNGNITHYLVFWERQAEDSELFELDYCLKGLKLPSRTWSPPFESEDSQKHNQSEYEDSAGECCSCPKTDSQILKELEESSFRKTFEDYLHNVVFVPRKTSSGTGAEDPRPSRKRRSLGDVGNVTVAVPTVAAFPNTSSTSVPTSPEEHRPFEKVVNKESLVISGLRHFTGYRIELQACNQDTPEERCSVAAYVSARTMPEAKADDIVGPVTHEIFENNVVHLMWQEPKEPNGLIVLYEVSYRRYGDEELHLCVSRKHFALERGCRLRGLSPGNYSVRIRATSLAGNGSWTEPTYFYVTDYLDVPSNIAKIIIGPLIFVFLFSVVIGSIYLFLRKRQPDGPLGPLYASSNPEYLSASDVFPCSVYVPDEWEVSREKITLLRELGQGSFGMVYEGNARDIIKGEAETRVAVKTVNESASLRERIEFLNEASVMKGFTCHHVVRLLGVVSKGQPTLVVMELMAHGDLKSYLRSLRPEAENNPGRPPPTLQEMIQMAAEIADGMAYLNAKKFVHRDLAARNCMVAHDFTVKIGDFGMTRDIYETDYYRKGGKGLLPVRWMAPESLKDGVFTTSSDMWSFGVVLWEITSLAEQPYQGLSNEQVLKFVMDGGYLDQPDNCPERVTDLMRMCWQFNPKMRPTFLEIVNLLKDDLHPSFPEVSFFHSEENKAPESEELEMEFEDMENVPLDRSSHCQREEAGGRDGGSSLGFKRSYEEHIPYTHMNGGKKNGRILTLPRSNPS
T2 sequence (P41145 whole entry, species assumed): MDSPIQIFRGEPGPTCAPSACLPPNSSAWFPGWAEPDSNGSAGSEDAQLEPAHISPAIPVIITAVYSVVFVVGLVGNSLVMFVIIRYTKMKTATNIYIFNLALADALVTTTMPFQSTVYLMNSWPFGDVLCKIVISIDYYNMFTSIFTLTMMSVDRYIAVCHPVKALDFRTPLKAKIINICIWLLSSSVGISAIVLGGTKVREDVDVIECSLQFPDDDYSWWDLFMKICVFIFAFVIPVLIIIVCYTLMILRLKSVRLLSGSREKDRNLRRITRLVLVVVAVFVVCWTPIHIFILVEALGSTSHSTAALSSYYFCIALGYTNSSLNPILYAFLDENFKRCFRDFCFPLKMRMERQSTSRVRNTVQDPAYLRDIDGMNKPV
T11 sequence (P23975 whole entry): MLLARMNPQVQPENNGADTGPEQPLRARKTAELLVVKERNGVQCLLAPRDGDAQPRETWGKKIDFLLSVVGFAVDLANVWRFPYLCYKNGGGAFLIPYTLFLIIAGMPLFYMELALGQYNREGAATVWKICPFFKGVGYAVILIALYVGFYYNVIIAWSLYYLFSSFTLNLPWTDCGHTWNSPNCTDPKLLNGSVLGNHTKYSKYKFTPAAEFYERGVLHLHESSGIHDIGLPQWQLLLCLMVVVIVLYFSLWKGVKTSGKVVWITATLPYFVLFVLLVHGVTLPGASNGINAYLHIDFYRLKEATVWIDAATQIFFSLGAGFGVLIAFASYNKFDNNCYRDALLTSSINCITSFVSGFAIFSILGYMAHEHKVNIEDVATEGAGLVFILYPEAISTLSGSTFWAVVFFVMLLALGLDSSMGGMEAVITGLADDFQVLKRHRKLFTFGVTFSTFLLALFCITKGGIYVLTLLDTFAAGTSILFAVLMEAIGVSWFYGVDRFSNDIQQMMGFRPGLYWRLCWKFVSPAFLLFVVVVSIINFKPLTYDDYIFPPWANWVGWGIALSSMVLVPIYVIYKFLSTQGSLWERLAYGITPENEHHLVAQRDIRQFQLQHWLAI
T4 sequence (P28223 whole entry): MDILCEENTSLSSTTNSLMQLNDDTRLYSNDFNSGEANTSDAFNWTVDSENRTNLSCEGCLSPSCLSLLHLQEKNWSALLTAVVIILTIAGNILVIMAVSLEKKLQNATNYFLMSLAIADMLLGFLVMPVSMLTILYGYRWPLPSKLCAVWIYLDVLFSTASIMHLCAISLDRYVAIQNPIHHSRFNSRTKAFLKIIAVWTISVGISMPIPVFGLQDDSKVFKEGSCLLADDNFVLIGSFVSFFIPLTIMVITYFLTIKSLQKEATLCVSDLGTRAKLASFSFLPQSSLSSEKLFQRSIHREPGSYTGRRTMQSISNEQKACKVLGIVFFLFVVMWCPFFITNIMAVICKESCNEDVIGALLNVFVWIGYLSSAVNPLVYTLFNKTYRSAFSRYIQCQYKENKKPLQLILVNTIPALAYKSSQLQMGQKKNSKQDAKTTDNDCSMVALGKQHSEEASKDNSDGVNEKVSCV
T12 sequence (P14416 1-414 isoform P14416-2): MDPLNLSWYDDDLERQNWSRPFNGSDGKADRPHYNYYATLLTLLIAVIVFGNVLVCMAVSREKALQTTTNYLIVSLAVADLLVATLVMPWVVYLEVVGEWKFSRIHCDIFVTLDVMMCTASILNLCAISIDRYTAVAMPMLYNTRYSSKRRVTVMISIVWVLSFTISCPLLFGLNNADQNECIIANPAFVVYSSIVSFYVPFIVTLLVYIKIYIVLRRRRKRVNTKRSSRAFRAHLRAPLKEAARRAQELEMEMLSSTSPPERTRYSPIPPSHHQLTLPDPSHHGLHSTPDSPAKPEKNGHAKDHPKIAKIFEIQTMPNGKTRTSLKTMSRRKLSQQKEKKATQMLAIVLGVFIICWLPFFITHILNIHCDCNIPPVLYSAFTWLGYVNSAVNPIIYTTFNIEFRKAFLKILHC
T9 sequence (Q14432 whole entry, species assumed): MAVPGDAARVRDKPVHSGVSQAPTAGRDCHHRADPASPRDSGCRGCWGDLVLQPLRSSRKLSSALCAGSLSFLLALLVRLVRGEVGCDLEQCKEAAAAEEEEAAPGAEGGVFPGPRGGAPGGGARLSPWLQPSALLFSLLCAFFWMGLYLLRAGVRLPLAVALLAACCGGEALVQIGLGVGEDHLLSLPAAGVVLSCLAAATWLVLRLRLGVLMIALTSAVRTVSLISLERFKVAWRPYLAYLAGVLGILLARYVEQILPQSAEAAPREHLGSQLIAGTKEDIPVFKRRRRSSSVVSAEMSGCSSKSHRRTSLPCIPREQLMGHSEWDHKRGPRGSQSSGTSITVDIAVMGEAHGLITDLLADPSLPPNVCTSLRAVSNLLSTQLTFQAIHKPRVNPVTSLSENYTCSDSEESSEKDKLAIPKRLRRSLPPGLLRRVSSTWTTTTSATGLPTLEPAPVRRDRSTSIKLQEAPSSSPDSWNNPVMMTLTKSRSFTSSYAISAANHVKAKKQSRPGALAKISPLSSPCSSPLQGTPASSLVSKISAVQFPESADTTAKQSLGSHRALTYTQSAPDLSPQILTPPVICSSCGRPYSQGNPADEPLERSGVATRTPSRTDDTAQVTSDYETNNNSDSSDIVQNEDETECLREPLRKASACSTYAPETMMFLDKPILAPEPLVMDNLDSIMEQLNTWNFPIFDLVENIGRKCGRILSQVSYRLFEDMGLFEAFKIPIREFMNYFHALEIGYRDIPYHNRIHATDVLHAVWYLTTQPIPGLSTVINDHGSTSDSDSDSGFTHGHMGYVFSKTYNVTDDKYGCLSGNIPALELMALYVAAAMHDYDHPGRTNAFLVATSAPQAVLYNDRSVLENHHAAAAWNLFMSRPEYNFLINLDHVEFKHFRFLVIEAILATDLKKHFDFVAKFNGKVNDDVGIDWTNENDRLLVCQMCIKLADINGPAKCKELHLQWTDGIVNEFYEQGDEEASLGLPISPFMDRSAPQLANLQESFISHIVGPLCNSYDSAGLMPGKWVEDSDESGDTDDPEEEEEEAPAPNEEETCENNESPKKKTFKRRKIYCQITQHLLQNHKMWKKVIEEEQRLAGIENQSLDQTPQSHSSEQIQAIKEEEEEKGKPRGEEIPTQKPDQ
T14 sequence (P34972 whole entry): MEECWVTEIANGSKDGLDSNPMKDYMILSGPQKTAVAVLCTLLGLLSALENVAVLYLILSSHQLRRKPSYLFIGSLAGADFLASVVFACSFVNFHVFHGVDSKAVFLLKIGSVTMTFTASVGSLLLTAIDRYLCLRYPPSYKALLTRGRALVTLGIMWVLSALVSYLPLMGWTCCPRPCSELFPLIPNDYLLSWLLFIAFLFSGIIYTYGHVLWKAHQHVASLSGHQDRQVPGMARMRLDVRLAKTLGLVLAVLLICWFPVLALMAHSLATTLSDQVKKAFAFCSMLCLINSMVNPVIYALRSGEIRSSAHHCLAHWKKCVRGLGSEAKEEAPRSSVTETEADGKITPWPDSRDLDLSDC

Cl.c1ccc2c(Nc3ccc4[nH]ccc4c3)nc(-c3ccncc3)nc2c1 [BC18630, N-1H-indol-5-yl-2-pyridin-4-ylquinazolin-4-amine hydrochloride]
Emax ([1]; Agonist): 0% | EC50 ([1]; Agonist): > 10 µM | Emax ([1]; Antagonist): 0% | IC50 ([1]; Antagonist): > 10 µM | Emax ([2]; Agonist): 8.98% | EC50 ([2]; Agonist): > 10 µM | Emax ([2]; Antagonist): 1% | IC50 ([2]; Antagonist): > 10 µM | Emax ([3]; Blocker): 12.4% | IC50 ([3]; Blocker): > 10 µM | Emax ([3]; Opener): 0% | EC50 ([3]; Opener): > 10 µM | Emax ([4]; Agonist): 4.44% | EC50 ([4]; Agonist): > 10 µM | Emax ([4]; Antagonist): 22.5% | IC50 ([4]; Antagonist): > 10 µM | Emax ([5]; Agonist): 42.6% | EC50 ([5]; Agonist): > 10 µM | Emax ([5]; Antagonist): 9.94% | IC50 ([5]; Antagonist): > 10 µM | Emax [6]: 15.6% | IC50 [6]: > 10 µM | Emax ([7]; Agonist): 0% | EC50 ([7]; Agonist): > 10 µM | Emax ([7]; Antagonist): 15.6% | IC50 ([7]; Antagonist): > 10 µM | Emax [8]: 21.8% | IC50 [8]: > 10 µM | TFEB protein level [9]: increased | Emax [10]: 8.9% | IC50 [10]: > 10 µM | Emax [11]: 52.3% | IC50 [11]: > 10 µM | Emax [12]: 0% | IC50 [12]: > 10 µM | Emax ([13]; Agonist): 0.87% | EC50 ([13]; Agonist): > 10 µM | Emax ([13]; Antagonist): 24.3% | IC50 ([13]; Antagonist): > 10 µM | Emax [14]: 0% | IC50 [14]: > 10 µM | Emax ([15]; Agonist): 27.8% | EC50 ([15]; Agonist): > 10 µM | Emax ([15]; Antagonist): 0% | IC50 ([15]; Antagonist): > 10 µM | Emax ([16]; Agonist): 0% | EC50 ([16]; Agonist): > 10 µM | IC50 ([16]; Antagonist): > 10 µM

Cl.Fc1cc(Nc2nc(-c3ccncc3)nc3ncccc23)cc2cc[nH]c12 [BC18813, N-(7-fluoro-1H-indol-5-yl)-2-pyridin-4-ylpyrido[2,3-d]pyrimidin-4-amine hydrochloride]
Emax ([1]; Agonist): 1.49% | EC50 ([1]; Agonist): > 10 µM | Emax ([1]; Antagonist): 6.52% | IC50 ([1]; Antagonist): > 10 µM | Emax ([2]; Agonist): 24.3% | EC50 ([2]; Agonist): > 10 µM | Emax ([2]; Antagonist): 0% | IC50 ([2]; Antagonist): > 10 µM | Emax ([3]; Blocker): 0% | IC50 ([3]; Blocker): > 10 µM | Emax ([3]; Opener): 0% | EC50 ([3]; Opener): > 10 µM | Emax ([4]; Agonist): 0.95% | EC50 ([4]; Agonist): > 10 µM | Emax ([4]; Antagonist): 25.6% | IC50 ([4]; Antagonist): > 10 µM | Emax ([5]; Agonist): 54.8% | EC50 ([5]; Agonist): > 10 µM | Emax ([5]; Antagonist): 0% | IC50 ([5]; Antagonist): > 10 µM | Emax [6]: 0% | IC50 [6]: > 10 µM | Emax ([7]; Agonist): 0% | EC50 ([7]; Agonist): > 10 µM | IC50 ([7]; Antagonist): > 10 µM | Emax [8]: 29.3% | IC50 [8]: > 10 µM | TFEB protein level [9]: increased | Emax [10]: 28.2% | IC50 [10]: > 10 µM | Emax [11]: 44.4% | IC50 [11]: > 10 µM | Emax [12]: 9.94% | IC50 [12]: > 10 µM | Emax ([13]; Agonist): 13.5% | EC50 ([13]; Agonist): > 10 µM | Emax ([13]; Antagonist): 5.93% | IC50 ([13]; Antagonist): > 10 µM | Emax [14]: 0% | IC50 [14]: > 10 µM | Curve Bottom ([15]; Agonist): 0 | Curve Top ([15]; Agonist): 100 | Hill ([15]; Agonist): 1.05 | Emax ([15]; Agonist): 63.6% | EC50 ([15]; Agonist): 4.59 µM | Emax ([15]; Antagonist): 0% | IC50 ([15]; Antagonist): > 10 µM | Emax ([16]; Agonist): 38.8% | EC50 ([16]; Agonist): > 10 µM | Emax ([16]; Antagonist): 0% | IC50 ([16]; Antagonist): > 10 µM
